According to patent US20260356819A1, “OXOISOINDOLINYL-SUBSTITUTED […] DERIVATIVE AND USE THEREOF” (GLUETACS THERAPEUTICS (SHANGHAI) CO., LTD., priority 2023, published 2026):

Legend:
Assay type in all cases: cell-based
Conditions in all cases: compounds at 50 nM and 500 nM
[1] = target: T1, WEE1 (Homo sapiens, UniProt P30291+Q96SW2); experiment: Western blot degradation of WEE1 in hPBMCs (24 h)
T1 construct: The supernatant was aspirated as the extracted total cell protein; endogenous in cells; host or cells: human peripheral blood mononuclear cells (hPBMCs)
T1 sequence (P30291 whole entry): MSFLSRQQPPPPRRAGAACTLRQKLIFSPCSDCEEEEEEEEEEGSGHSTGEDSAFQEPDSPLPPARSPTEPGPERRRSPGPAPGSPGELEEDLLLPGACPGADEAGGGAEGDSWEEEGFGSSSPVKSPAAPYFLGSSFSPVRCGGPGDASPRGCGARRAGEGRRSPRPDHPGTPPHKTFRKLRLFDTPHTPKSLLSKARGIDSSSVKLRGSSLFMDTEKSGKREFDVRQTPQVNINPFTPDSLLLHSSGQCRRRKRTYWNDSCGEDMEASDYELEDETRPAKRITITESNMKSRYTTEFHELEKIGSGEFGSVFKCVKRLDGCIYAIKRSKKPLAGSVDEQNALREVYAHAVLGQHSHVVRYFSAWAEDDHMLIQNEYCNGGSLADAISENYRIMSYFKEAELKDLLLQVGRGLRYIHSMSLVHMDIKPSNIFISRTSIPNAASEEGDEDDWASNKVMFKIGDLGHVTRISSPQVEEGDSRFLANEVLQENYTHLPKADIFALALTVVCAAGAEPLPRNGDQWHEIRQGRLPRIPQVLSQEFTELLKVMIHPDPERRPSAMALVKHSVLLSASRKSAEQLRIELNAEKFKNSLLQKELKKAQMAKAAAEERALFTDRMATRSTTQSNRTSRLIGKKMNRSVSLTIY
T1 sequence (Q96SW2 whole entry): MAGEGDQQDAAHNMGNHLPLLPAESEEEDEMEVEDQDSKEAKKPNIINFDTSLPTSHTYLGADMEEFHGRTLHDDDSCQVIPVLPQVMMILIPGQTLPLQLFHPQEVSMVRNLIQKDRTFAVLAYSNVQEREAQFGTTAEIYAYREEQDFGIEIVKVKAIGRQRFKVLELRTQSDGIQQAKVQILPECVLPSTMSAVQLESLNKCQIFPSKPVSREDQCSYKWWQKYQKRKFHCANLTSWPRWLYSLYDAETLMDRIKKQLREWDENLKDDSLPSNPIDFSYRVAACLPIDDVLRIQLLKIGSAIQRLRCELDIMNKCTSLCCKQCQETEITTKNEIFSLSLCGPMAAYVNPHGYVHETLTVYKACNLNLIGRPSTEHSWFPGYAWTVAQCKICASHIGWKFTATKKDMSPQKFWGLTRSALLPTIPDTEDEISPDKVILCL
T1 sequence (Q16531 whole entry partner): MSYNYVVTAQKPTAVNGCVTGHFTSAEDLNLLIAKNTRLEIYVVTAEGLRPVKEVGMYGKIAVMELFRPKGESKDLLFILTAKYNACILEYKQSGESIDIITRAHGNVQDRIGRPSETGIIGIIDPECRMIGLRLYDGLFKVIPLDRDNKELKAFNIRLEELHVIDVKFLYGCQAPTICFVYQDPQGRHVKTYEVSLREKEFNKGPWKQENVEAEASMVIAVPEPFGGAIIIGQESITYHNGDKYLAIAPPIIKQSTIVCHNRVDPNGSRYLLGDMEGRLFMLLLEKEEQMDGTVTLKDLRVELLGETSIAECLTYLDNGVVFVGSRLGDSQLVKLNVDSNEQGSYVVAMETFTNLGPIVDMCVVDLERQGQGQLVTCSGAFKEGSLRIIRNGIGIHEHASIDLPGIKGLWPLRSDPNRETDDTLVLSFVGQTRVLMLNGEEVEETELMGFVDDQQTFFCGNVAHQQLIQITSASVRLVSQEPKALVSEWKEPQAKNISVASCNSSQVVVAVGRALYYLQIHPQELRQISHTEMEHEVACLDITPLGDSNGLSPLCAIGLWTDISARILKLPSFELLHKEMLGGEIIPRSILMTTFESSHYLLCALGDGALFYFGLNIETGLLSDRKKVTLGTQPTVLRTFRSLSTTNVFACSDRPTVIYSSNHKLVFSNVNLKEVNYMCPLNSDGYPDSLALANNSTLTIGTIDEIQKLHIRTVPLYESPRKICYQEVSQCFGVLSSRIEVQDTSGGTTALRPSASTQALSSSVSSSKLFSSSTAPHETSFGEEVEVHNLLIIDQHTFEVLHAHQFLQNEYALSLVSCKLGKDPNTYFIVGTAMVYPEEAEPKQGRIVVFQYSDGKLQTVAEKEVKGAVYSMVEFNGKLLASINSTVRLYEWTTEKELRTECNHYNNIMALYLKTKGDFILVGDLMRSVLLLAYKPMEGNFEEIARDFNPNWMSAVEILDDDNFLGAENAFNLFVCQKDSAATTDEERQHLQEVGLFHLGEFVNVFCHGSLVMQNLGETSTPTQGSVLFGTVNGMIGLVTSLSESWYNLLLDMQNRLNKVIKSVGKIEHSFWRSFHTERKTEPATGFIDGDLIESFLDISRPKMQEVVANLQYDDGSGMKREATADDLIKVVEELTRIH
Procedure, shortened: (§1)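 Immunoblot densitometry quantifies target loss in hPBMCs after a 24 h compound exposure (50 nM, 500 nM). Percent remaining is normalised band intensity; DC50 is the concentration giving half the DMSO-control band grayscale.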

[2] = target: T2, IKZF1 (Homo sapiens, UniProt Q13422+Q96SW2); experiment: Western blot degradation of IKZF1 in hPBMCs (24 h)
T2 construct: The supernatant was aspirated as the extracted total cell protein; endogenous in cells; host or cells: human peripheral blood mononuclear cells (hPBMCs)
T2 sequence (Q13422 whole entry): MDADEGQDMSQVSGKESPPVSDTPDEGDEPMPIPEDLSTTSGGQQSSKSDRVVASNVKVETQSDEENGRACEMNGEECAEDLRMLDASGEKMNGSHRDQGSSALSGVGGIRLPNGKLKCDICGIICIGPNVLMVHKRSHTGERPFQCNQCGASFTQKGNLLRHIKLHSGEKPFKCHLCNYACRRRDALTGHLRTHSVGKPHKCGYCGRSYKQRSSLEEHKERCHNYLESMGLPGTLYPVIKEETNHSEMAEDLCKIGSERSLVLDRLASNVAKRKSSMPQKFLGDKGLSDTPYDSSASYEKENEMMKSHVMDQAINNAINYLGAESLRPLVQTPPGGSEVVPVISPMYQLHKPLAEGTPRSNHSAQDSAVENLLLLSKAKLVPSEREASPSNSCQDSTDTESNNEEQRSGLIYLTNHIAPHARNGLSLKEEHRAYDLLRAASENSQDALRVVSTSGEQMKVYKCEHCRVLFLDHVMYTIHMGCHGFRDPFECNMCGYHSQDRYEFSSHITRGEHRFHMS
T2 sequence (Q96SW2 whole entry): as the sequence (Q96SW2 whole entry) above
T2 sequence (Q16531 whole entry partner): as the sequence (Q16531 whole entry partner) above
Procedure, shortened: as §1

[3] = target: T3, GSPT1 (Homo sapiens, UniProt P15170+Q96SW2); experiment: Western blot degradation of GSPT1 in hPBMCs (24 h)
T3 construct: The supernatant was aspirated as the extracted total cell protein; endogenous in cells; host or cells: human peripheral blood mononuclear cells (hPBMCs)
T3 sequence (P15170 whole entry): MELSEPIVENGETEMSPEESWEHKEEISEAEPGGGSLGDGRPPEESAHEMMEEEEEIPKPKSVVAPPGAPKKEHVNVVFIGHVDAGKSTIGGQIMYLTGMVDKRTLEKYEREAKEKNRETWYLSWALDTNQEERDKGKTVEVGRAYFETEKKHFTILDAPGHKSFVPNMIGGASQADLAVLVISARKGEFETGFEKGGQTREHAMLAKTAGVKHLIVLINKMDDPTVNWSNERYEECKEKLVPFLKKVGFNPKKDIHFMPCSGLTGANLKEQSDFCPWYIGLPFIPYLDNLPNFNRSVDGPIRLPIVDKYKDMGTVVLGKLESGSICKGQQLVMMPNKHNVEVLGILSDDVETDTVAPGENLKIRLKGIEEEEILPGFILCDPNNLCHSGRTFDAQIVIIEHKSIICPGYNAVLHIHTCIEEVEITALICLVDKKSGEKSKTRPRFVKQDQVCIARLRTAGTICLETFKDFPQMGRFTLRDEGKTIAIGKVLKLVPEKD
T3 sequence (Q96SW2 whole entry): as the sequence (Q96SW2 whole entry) above
T3 sequence (Q16531 whole entry partner): as the sequence (Q16531 whole entry partner) above
Procedure, shortened: as §1

[4] = target: T4, IKZF2 (Homo sapiens, UniProt Q96SW2+Q9UKS7); experiment: Western blot degradation of IKZF2 in hPBMCs (24 h)
T4 construct: The supernatant was aspirated as the extracted total cell protein; endogenous in cells; host or cells: human peripheral blood mononuclear cells (hPBMCs)
T4 sequence (Q9UKS7 whole entry): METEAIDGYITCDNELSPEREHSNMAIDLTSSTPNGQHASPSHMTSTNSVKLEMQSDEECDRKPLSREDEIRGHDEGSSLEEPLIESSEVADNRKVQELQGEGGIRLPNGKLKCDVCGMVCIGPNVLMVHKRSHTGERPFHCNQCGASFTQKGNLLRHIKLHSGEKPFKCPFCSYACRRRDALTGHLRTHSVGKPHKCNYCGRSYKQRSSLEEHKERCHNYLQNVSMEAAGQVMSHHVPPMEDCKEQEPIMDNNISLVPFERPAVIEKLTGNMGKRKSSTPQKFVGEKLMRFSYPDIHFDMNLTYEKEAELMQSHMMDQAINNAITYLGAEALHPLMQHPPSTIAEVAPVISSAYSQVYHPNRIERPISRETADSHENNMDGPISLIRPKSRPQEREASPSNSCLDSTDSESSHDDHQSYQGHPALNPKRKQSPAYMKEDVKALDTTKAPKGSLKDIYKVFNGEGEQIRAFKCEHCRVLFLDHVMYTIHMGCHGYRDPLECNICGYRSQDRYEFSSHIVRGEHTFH
T4 sequence (Q96SW2 whole entry): as the sequence (Q96SW2 whole entry) above
T4 sequence (Q16531 whole entry partner): as the sequence (Q16531 whole entry partner) above
Procedure, shortened: as §1

[5] = target: T5, CK1α (Homo sapiens, UniProt P48729+Q96SW2); experiment: Western blot degradation of CK1α in hPBMCs (24 h)
T5 construct: The supernatant was aspirated as the extracted total cell protein; endogenous in cells; host or cells: human peripheral blood mononuclear cells (hPBMCs)
Procedure, shortened: as §1

[6] = target: T6, IKZF3 (Homo sapiens, UniProt Q96SW2+Q9UKT9); experiment: Western blot degradation of IKZF3 in hPBMCs (24 h)
T6 construct: The supernatant was aspirated as the extracted total cell protein; endogenous in cells; host or cells: human peripheral blood mononuclear cells (hPBMCs)
T6 sequence (Q9UKT9 whole entry): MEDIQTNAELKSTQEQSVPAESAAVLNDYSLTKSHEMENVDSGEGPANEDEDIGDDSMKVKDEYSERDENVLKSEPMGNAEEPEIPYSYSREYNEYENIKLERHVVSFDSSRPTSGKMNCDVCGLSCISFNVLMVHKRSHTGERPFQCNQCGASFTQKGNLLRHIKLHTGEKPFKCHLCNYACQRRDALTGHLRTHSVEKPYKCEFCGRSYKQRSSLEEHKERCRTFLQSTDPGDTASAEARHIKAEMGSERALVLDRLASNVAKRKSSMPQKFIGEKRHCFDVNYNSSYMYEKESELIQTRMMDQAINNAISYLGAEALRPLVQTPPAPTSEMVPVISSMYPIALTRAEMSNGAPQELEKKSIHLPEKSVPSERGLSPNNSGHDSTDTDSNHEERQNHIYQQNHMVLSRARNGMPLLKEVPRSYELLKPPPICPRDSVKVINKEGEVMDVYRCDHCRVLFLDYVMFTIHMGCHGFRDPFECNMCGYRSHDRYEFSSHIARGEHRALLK
T6 sequence (Q96SW2 whole entry): as the sequence (Q96SW2 whole entry) above
T6 sequence (Q16531 whole entry partner): as the sequence (Q16531 whole entry partner) above
Procedure, shortened: as §1

SMILES	WEE1 substrate protein remaining % [1]	IKZF1 substrate protein remaining % [2]	GSPT1 substrate protein remaining % [3]	IKZF2 substrate protein remaining % [4]	CK1α substrate protein remaining % [5]	IKZF3 substrate protein remaining % [6]
Cc1csc2ncnc(C3=CCN(Cc4ccc5c(c4)CN(N4CCC(=O)NC4=O)C5=O)CC3)c12 [GT-08117, 1-(5-((4-(5-methylthieno[2,3-d]pyrimidin-4-yl)-3,6-dihydropyridin-1(2H)-yl)methyl)-1-oxoisoindolin-2-yl)dihydropyrimidine-2,4(1H,3H)-dione]	B (80%< substrate protein remaining % ≤100%)	B (80%< substrate protein remaining % ≤100%)	A (0% ≤ substrate protein remaining % ≤80%)	B (80%< substrate protein remaining % ≤100%)	A (0% ≤ substrate protein remaining % ≤80%)	A (0% ≤ substrate protein remaining % ≤80%)
O=C1CCN(N2Cc3cc(CN4CCC(c5cccc(F)c5F)CC4)ccc3C2=O)C(=O)N1 [GT-08194, 1-(5-((4-(2,3-difluorophenyl)piperidin-1-yl)methyl)-1-oxoisoindolin-2-yl)dihydropyrimidine-2,4(1H,3H)-dione]	B (80%< substrate protein remaining % ≤100%)	A (0% ≤ substrate protein remaining % ≤80%)	A (0% ≤ substrate protein remaining % ≤80%)	B (80%< substrate protein remaining % ≤100%)	B (80%< substrate protein remaining % ≤100%)	B (80%< substrate protein remaining % ≤100%)
O=C1CCN(N2C(=O)c3ccc(CN4CCC(c5ncnc6sc7c(c56)CCCC7)CC4)cc3C2=O)C(=O)N1 [GT-08424, 2-(2,4-dioxotetrahydropyrimidin-1(2H)-yl)-5-((4-(5,6,7,8-tetrahydrobenzo[4,5]thieno[2,3-d]pyrimidin-4-yl)piperidin-1-yl)methyl)isoindoline-1,3-dione]	B (80%< substrate protein remaining % ≤100%)	B (80%< substrate protein remaining % ≤100%)	A (0% ≤ substrate protein remaining % ≤80%)	B (80%< substrate protein remaining % ≤100%)	A (0% ≤ substrate protein remaining % ≤80%)	B (80%< substrate protein remaining % ≤100%)
O=C1CCN(N2C(=O)c3ccc(CN4CCC(c5ncc6ccsc6n5)CC4)cc3C2=O)C(=O)N1 [GT-08427, 2-(2,4-dioxotetrahydropyrimidin-1(2H)-yl)-5-((4-(thieno[2,3-d]pyrimidin-2-yl)piperidin-1-yl)methyl)isoindoline-1,3-dione]	A (0% ≤ substrate protein remaining % ≤80%)	B (80%< substrate protein remaining % ≤100%)	B (80%< substrate protein remaining % ≤100%)	A (0% ≤ substrate protein remaining % ≤80%)	B (80%< substrate protein remaining % ≤100%)	B (80%< substrate protein remaining % ≤100%)
Cc1csc2ncnc(C3=CCN(Cc4ccc5c(c4)C(=O)N(N4CCC(=O)NC4=O)C5=O)CC3)c12 [GT-08428, 2-(2,4-dioxotetrahydropyrimidin-1(2H)-yl)-5-((4-(5-methylthieno[2,3-d]pyrimidin-4-yl)-3,6-dihydropyridin-1(2H)-yl)methyl)isoindoline-1,3-dione]	A (0% ≤ substrate protein remaining % ≤80%)	B (80%< substrate protein remaining % ≤100%)	B (80%< substrate protein remaining % ≤100%)	A (0% ≤ substrate protein remaining % ≤80%)	B (80%< substrate protein remaining % ≤100%)	A (0% ≤ substrate protein remaining % ≤80%)
O=C1CCN(N2C(=O)c3ccc(CN4CC=C(c5ncnc6sc(-c7ccccc7)cc56)CC4)cc3C2=O)C(=O)N1 [GT-08430, 2-(2,4-dioxotetrahydropyrimidin-1(2H)-yl)-5-((4-(6-phenylthieno[2,3-d]pyrimidin-4-yl)-3,6-dihydropyridin-1(2H)-yl)methyl)isoindoline-1,3-dione]	A (0% ≤ substrate protein remaining % ≤80%)	B (80%< substrate protein remaining % ≤100%)	B (80%< substrate protein remaining % ≤100%)	B (80%< substrate protein remaining % ≤100%)	B (80%< substrate protein remaining % ≤100%)	B (80%< substrate protein remaining % ≤100%)
O=C1CCN(N2C(=O)c3ccc(CN4CC=C(c5ncnc6scc(-c7ccccc7)c56)CC4)cc3C2=O)C(=O)N1 [GT-08431, 2-(2,4-dioxotetrahydropyrimidin-1(2H)-yl)-5-((4-(5-phenylthieno[2,3-d]pyrimidin-4-yl)-3,6-dihydropyridin-1(2H)-yl)methyl)isoindoline-1,3-dione]	A (0% ≤ substrate protein remaining % ≤80%)	B (80%< substrate protein remaining % ≤100%)	B (80%< substrate protein remaining % ≤100%)	A (0% ≤ substrate protein remaining % ≤80%)	B (80%< substrate protein remaining % ≤100%)	B (80%< substrate protein remaining % ≤100%)
Cc1nc(C2=CCN(Cc3ccc4c(c3)C(=O)N(N3CCC(=O)NC3=O)C4=O)CC2)c2c3c(sc2n1)CCCC3 [GT-08432, 2-(2,4-dioxotetrahydropyrimidin-1(2H)-yl)-5-((4-(2-methyl-5,6,7,8-tetrahydrobenzo[4,5]thieno[2,3-d]pyrimidin-4-yl)-3,6-dihydropyridin-1(2H)-yl)methyl)isoindoline-1,3-dione]	B (80%< substrate protein remaining % ≤100%)	B (80%< substrate protein remaining % ≤100%)	A (0% ≤ substrate protein remaining % ≤80%)	B (80%< substrate protein remaining % ≤100%)	A (0% ≤ substrate protein remaining % ≤80%)	A (0% ≤ substrate protein remaining % ≤80%)
O=C1CCN(N2C(=O)c3ccc(CN4CC=C(c5ncnc6sc7c(c56)CCCC7)CC4)cc3C2=O)C(=O)N1 [GT-08433, 2-(2,4-dioxotetrahydropyrimidin-1(2H)-yl)-5-((4-(5,6,7,8-tetrahydrobenzo[4,5]thieno[2,3-d]pyrimidin-4-yl)-3,6-dihydropyridin-1(2H)-yl)methyl)isoindoline-1,3-dione]	B (80%< substrate protein remaining % ≤100%)	B (80%< substrate protein remaining % ≤100%)	A (0% ≤ substrate protein remaining % ≤80%)	B (80%< substrate protein remaining % ≤100%)	A (0% ≤ substrate protein remaining % ≤80%)	A (0% ≤ substrate protein remaining % ≤80%)
O=C1CCN(N2C(=O)c3ccc(CN4CC=C(c5ncnc6sc7c(c56)CCC7)CC4)cc3C2=O)C(=O)N1 [GT-08434, 5-((4-(6,7-dihydro-5H-cyclopenta[4,5]thieno[2,3-d]pyrimidin-4-yl)-3,6-dihydropyridin-1(2H)-yl)methyl)-2-(2,4-dioxotetrahydropyrimidin-1(2H)-yl)isoindoline-1,3-dione]	B (80%< substrate protein remaining % ≤100%)	A (0% ≤ substrate protein remaining % ≤80%)	A (0% ≤ substrate protein remaining % ≤80%)	A (0% ≤ substrate protein remaining % ≤80%)	A (0% ≤ substrate protein remaining % ≤80%)	A (0% ≤ substrate protein remaining % ≤80%)
Cc1nc(C2=CCN(Cc3ccc4c(c3)C(=O)N(N3CCC(=O)NC3=O)C4=O)CC2)c2c3c(sc2n1)CCC3 [GT-08435, 2-(2,4-dioxotetrahydropyrimidin-1(2H)-yl)-5-((4-(2-methyl-6,7-dihydro-5H-cyclopenta[4,5]thieno[2,3-d]pyrimidin-4-yl)-3,6-dihydropyridin-1(2H)-yl)methyl)isoindoline-1,3-dione]	A (0% ≤ substrate protein remaining % ≤80%)	A (0% ≤ substrate protein remaining % ≤80%)	A (0% ≤ substrate protein remaining % ≤80%)	B (80%< substrate protein remaining % ≤100%)	B (80%< substrate protein remaining % ≤100%)	A (0% ≤ substrate protein remaining % ≤80%)
Cc1nc(C2=CCN(Cc3ccc4c(c3)CN(N3CCC(=O)NC3=O)C4=O)CC2)c2c3c(sc2n1)CCC3 [GT-08437, 1-(5-((4-(2-methyl-6,7-dihydro-5H-cyclopenta[4,5]thieno[2,3-d]pyrimidin-4-yl)-3,6-dihydropyridin-1(2H)-yl)methyl)-1-oxoisoindolin-2-yl)dihydropyrimidine-2,4(1H,3H)-dione]	A (0% ≤ substrate protein remaining % ≤80%)	A (0% ≤ substrate protein remaining % ≤80%)	A (0% ≤ substrate protein remaining % ≤80%)	B (80%< substrate protein remaining % ≤100%)	B (80%< substrate protein remaining % ≤100%)	A (0% ≤ substrate protein remaining % ≤80%)
